From ChEMBL document CHEMBL1201862, “PubChem BioAssay data set” (2004) come the findings set out here.

Holding throughout (test): NCI tumour cell line growth inhibition, 48 h
Assay [1] relates to A498.
Assay [2] has as its system DU-145.
For assay [3], the system named is HCT-116.
Assay [4] concerns HCT-15.
For assay [5], the system named is HOP-92.
For assay [6], the system named is Hs-578T.
The subject of assay [7] is K562.
Assay [8] has as its system MDA-MB-435.
Assay [9] relates to Malme-3M.
Assay [10] relates to NCI-H460.
Assay [11] relates to NCI/ADR-RES.
Assay [12] relates to OVCAR-3.
Assay [13] concerns PC-3.
The subject of assay [14] is SF-268.
Assay [15] deals with SR.
Assay [16] deals with TK-10.
Assay [17] concerns U-251.
The test system of assay [18] is UACC-62.
Assay [19] relates to MCF7.
The test system of assay [20] is SF-539.

Structures are written as SMILES.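 Exposure lasted 48 hours, with cells grown in 96-well plates and compounds tested at five concentrations. At the GI50, growth is halved.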 Active and inactive are the calls of the source. Cut-off read from the data, not from the text of the source: active = GI50 up to about 1.1 µM and inactive = higher.

In the case of `Cc1cc(O)c(C(C)C)cc1NC(=O)Nc1cccc2ccccc12`, the GI50 in [1] was 13.1 µM (inactive); in assay [2] it was 15 µM (inactive); in [3], 15.6 µM (inactive); in assay [4] it was 20.7 µM; in [5], 17.4 µM (inactive); in [6], 13.4 µM (inactive). In addition, the GI50 in assay [7] is 34.6 µM (inactive); in [8] it was 15.9 µM (inactive); in [9], 19.5 µM (inactive); in [10], 16.5 µM (inactive); in assay [11], 20.9 µM (inactive); in [12], 16 µM (inactive). Further, the GI50 was 13.7 µM (inactive) in assay [13]; 17.3 µM (inactive) in assay [14]; 26.6 µM (inactive) in assay [15]; 18.2 µM (inactive) in assay [16]; 17.2 µM (inactive) in [17]; 13 µM (inactive) in [18].
Take `Nc1ccc2[nH]cc(CCC(=O)O)c2c1`: the GI50 in assay [1] is > 100 µM (inactive); in assay [2], > 100 µM (inactive); in assay [3] it was > 100 µM (inactive); in assay [4] it was above 100 µM; in assay [6], > 100 µM (inactive); in assay [19], > 100 µM (inactive). The GI50 in [8] is > 100 µM (inactive); in [9] it was 28.8 µM (inactive); in assay [11], > 100 µM (inactive); in assay [12] it was > 100 µM (inactive); in [13] it was > 100 µM (inactive); in [14] it was > 100 µM (inactive). The GI50 in assay [20], in assay [16], in [17] and in assay [18] was > 100 µM (inactive) each time.
Consider `CCC(=N\NC(N)=S)/C(C)=N/O`, for which the GI50 in [2] was > 100 µM (inactive); in assay [3], > 100 µM (inactive); in assay [4] it was above 100 µM; in assay [5], > 100 µM (inactive); in assay [6], > 100 µM (inactive); in assay [7], > 100 µM (inactive). The GI50 in [19], in assay [8], in [9], in assay [10], in assay [11] and in [12] was > 100 µM (inactive) in each case. Besides, the GI50 in assay [13], in [14], in [20], in assay [16], in assay [17] and in [18] was > 100 µM (inactive) each time.
`CC1=CC2=C(C#N)C(=O)OC2(C)C(c2ccccc2)C1` (stereo not given): the GI50 in assay [1] is > 100 µM (inactive); in assay [2], > 100 µM (inactive); in assay [3], > 100 µM (inactive); in assay [4], above 100 µM; in [5], 87.5 µM (inactive); in assay [6] it was > 100 µM (inactive). For the same compound, the GI50 in assay [7] is 68.7 µM (inactive); in assay [8] it was > 100 µM (inactive); in assay [9], > 100 µM (inactive); in [10], > 100 µM (inactive); in [11] it was 72.1 µM (inactive); in [12], > 100 µM (inactive). For the same compound, the GI50 in assay [13] was 68.5 µM (inactive); in [14], > 100 µM (inactive); in assay [20], > 100 µM (inactive); in assay [16], > 100 µM (inactive); in [17] it was > 100 µM (inactive); in assay [18], > 100 µM (inactive).
